According to US20230134003A1, “METHOD AND APPARATUS FOR CLINICAL TESTING” (Lightcast Discovery Ltd, priority 2019, published 2023):

Test system: sample strain of E. coli bacteria
Experiment: Panel merge and MIC determination in microdroplets on oEWOD chip
Type: cell-based
Conditions: gentamicin in tryptic soy broth (TSB) droplets merged with droplets of 1-3 bacteria; growth pattern observed within three hours of reducing the concentration
Method: Droplets were paired together so that the post-merge droplets were all roughly of uniform size. Every third droplet was labelled as a control and remained unpaired. The smaller droplets in this example contained the antibiotic gentamicin at a concentration of 500 ng/mL in tryptic soy broth (TSB), whilst each of the larger droplets contained 1-3 bacteria in TSB. […] Within three hours of reducing the concentration, a robust growth behaviour pattern was observed, allowing for a determination of the MIC. In this particular case, the MIC was determined to lie at approximately 300 pg/mL.

Substance: gentamicin
- MIC: approximately 300 pg/mL
